The source of these data is publication PMC7118841 (Biomedicine & Pharmacotherapy, 2006).

Broadly, the EC50 is the concentration giving half of the maximal effect. By IC50 is commonly meant the concentration that gives 50% inhibition.

In one series the test system is TGEV. It counts as cell-based, transmissible gastroenteritis virus of swine. The settings on record: read-out: EC50, TGEV.
In another series the test system is FIPV. It counts as cell-based, feline infectious peritonitis virus. The settings on record: read-out: EC50, FIPV.
The test system of the next series is DFV. The settings on record: read-out: EC50, DFV; MTT method; cited from earlier work.
Another series relates to FluV A. The settings on record: read-out: EC50, FluV A; MTT method; cited from earlier work. A general note: Tetrazolium dyes change colour on reduction, which living cells bring about.
The subject of the next series is RSV. The settings on record: read-out: EC50, RSV; MTT method; cited from earlier work.
For a further series, the system named is PfluV 2. The settings on record: cited from earlier work; for EC50: read-out: EC50, PfluV 2, MTT method.
The next series deals with CDV. The settings on record: cited from earlier work; for EC50: read-out: EC50, CDV, plaque reduction method. On the technique in general: Plaque reduction counts the foci of infection that form in a cell layer.
The test system of a further series is HIV-1. The conditions noted are these: read-out: EC50, HIV-1; MTT method; cited from earlier work.
In the next series the test system is RSV-B (SM-61-48). The conditions noted are these: read-out: EC50, RSV-B (SM-61-48); MTT method; data from one experiment; cited from earlier work.
The next series relates to MDCK. The settings on record: read-out: IC50, cytotoxicity MDCK; MTT method; cited from earlier work.
Another series has as its system HEp-2. The conditions noted are these: read-out: IC50, cytotoxicity HEp-2; MTT method; cited from earlier work.
Another series has as its system HMV-2. The conditions noted are these: read-out: IC50, cytotoxicity HMV-2; MTT method; cited from earlier work.
The subject of a further series is Vero. The settings on record: read-out: IC50, cytotoxicity Vero; MTT method; cited from earlier work.
The next series deals with SARS-V. It counts as cell-based, SARS coronavirus. The conditions noted are these: read-out: EC50, SARS-V.

With “(NBu4)4(PriNH3) [PTi2W10O38(O2)2]2H2O [PM-803]”, the results for the concentration giving a half-maximal response (EC50) in the series with TGEV and in the series on FIPV were 0.34 ± 0.3 µM and more than 21 µM, respectively.

For K5[SiVW11O40] [PM-43], the EC50 is 10.7 ± 6.7 µM in the series with DFV; 8.4 ± 6.5 µM in the series with FluV A; 1.6 µM with RSV; more than 100 µM in the series with PfluV 2; 7.5 ± 1 µM in the series on CDV; 0.3 ± 0.12 µM in the series with HIV-1. Besides, the “antiviral activity against PfluV 2” value with PfluV 2 is on record as “did not have antiviral activities”.

Consider K7[BVW11O40] [PM-47], for which the EC50 with DFV was 10.5 ± 6.9 µM; in the series with FluV A, 11.5 ± 0.6 µM; with RSV, 29 µM; in the series on PfluV 2 it was 67.1 µM; in the series on CDV, 6 ± 0.6 µM; in the series on HIV-1, 0.03 ± 0.01 µM.

Regarding K12Nb6P2W12O62 [HS-158], the EC50 in the series on RSV-B (SM-61-48) is 2.7 µM. Further, the IC50 in the series on MDCK was 164 µM; with HEp-2, 82.7 µM; in the series with HMV-2 it was 53.7 µM; with Vero it was more than 200 µM.

With K12[(VO)3(AsW9O33)2]12H2O [PM-1207], the concentration giving a half-maximal response (EC50) in the series on TGEV was 1.9 ± 1.4 µM; with FIPV, 0.09 ± 0.04 µM; with SARS-V, 0.9 ± 0.24 µM.

Take K12[(VO)3(BiW9O33)2]29H2O [PM-1208]: the EC50 with TGEV was 2 ± 1.8 µM; in the series with FIPV it was more than 3.6 µM; with SARS-V, 2.7 ± 0.6 µM.

With K12[(VO)3(PW9O34)2]nH2O [PM-1213], the EC50 was 1.7 ± 1 µM in the series with TGEV, more than 10.5 µM in the series on FIPV and 0.47 ± 0.14 µM with SARS-V.

Take “Na7H9{Eu3O(OH)3(H2O)3}2Al2(Nb6O19)5}47H2O [PM-802]”: the 50% effective concentration (EC50) in the series with TGEV is 0.5 ± 0.5 µM; in the series on FIPV, 0.03 ± 0.01 µM; in the series with SARS-V it was more than 50 µM.

Consider [Et2NH2]7[PTi2W10O40] [PM-518], for which the 50% effective concentration (EC50) in the series on TGEV was 2.1 ± 1.1 µM; with FIPV it was more than 32.9 µM; in the series with SARS-V, more than 50 µM; in the series with DFV, 36.8 ± 3 µM; in the series with FluV A it was 62 ± 27 µM; in the series with RSV, 26.5 µM. Further, the concentration for a half-maximal effect (EC50) in the series with PfluV 2 is 53 ± 39 µM; in the series with CDV it was more than 50 µM; in the series on HIV-1, 2 ± 0.8 µM. Moreover, the “antiviral activity against CDV” value in the series with CDV is listed as “did not have antiviral activities”.

On to “[NH4]12H(BiW9O33)3Bi6(OH)3(H2O)3V4H10]25H2O [PM-1210]”, for which the values for the EC50 in the series with TGEV, in the series with FIPV and in the series on SARS-V were 1.6 ± 1.1 µM, 0.74 ± 0.4 µM and 0.76 ± 0.3 µM, respectively.

Take [Na16Fe4(H2O)2(P2W15O56)2]nH2O [HS-054]: the EC50 with RSV-B (SM-61-48) is 7.8 µM. The IC50 was more than 200 µM with MDCK, 88 µM in the series with HEp-2, more than 200 µM in the series with HMV-2 and 50 µM in the series with Vero.

On to [Pri2NH2]5[PTiW11O40] [PM-520], for which the concentration giving a half-maximal response (EC50) was 1.4 ± 1.3 µM with TGEV; 0.76 ± 0.5 µM in the series with FIPV; 4.9 ± 1.4 µM in the series with SARS-V; 11.7 ± 7.1 µM in the series with DFV; 45 ± 26 µM in the series with FluV A; 0.74 ± 0.6 µM in the series on RSV. For the same substance, the half-maximal effective concentration (EC50) in the series on PfluV 2 was 23 ± 2.4 µM; with CDV, 7.4 ± 0.4 µM; with HIV-1, 2 ± 0.5 µM.
